22 molecules from patent publication US10166214B2, “Somatostatin receptor subtype 4 (SSTR4) agonists” (Centrexion Therapeutics Corporation, priority 2013, dated 2019) can be followed below.

As a reminder, the EC50 is the midpoint of the concentration-response curve. Usually Ki stands for a dissociation constant, usually derived from enzyme kinetics or from competition with a known ligand.

A short description of data set [1]: Metabolic stability in pooled human liver microsomes (half-life). The format is in vitro ADME. To be noted: 1 μM test compound; for Half-life t1/2: 37° C.; for half-life at 1 μM: pH 7.6, 37° C., read-out: Half-life t1/2. On the procedure:
The metabolic stability of the compounds according to the invention may be investigated as follows:
The metabolic degradation of the test compound is assayed at 37° C. with pooled human liver microsomes. The final incubation volume of 100 μl per time point contains TRIS buffer pH 7.6 at room temperature (0.1 M), magnesium chloride (5 mM), microsomal protein (1 mg/mL) and the test compound at a final concentration of 1 μM. Following a short preincubation period at 37° C., the reactions are initiated by addition of beta-nicotinamide adenine dinucleotide phosphate, reduced form (NADPH, 1 mM), and terminated by transferring an aliquot into solvent after different time points. After centrifugation (10000 g, 5 min), an aliquot of the supernatant is assayed by LC-MS/MS for the amount of parent compound. The half-life is determined by the slope of the semi-logarithmic plot of the concentration-time profile.

For data set [2], the target named is human Somatostatin 4 receptor (SSTR4) (Homo sapiens (Human), UniProt P31391). The data set can be described thus: cAMP assay with human somatostatin 4 receptor (hSSTR4 expressing H4 cells). The format is cell-based. To be noted: read-out: SSTR4 agonism EC50. The method, then: Method Description for cAMP Assay with Human Somatostatin 4 Receptor
The activation of the SSTR4 receptor (Gi coupled) causes an inhibition of intracellular cAMP after stimulation with Forskolin, which can be quantifiable by use of a suitable assay Kit and an adequate plate reader. This technique is used to characterize pharmacological effects of the SSTR4 receptor agonists by use of hSSTR4 expressing H4 cells.
Compounds are dissolved and diluted in DMSO. The final test solution contains 1% DMSO. […] Cells are centrifuged and suspended in assay buffer (incl. 1:100 diluted Alexa antibody).
For the assay 5 μl of a cell suspension (approximately 5000 cells/well)—incl. Alexa antibody (diluted 1:100) are added into a 384 well MTP microtitre plate excepting one row or column (depending on the plate layout), which is reserved for the standard curve. Then 2 μl of compound sample is added as concentration response curve (e.g. 1e-5 M to 6e-10 M), usually in triplicates. Each assay contains incubations with vehicle controls instead of compound as controls for non-inhibited cAMP generation (100% CTL; ‘high values’) and incubations with 1 μM Somatosatin as controls for full inhibition and background (0% CTL; ‘low values’). […] Then the plates are shaken briefly and incubated for 60 min at room temperature. After 60 min 10 μl of the detection mix is added into all wells followed by an additional incubation period of 1 h. The plates are read in a suitable plate reader.
From this ratio, cAMP concentrations are calculated from standard curve and the EC50 is estimated by least square curve fit program.
In general terms: Changes in cAMP serve as a functional read-out for many G protein-coupled receptors.

Another data set has as its target human SSTR4 (Homo sapiens (Human), UniProt P31391). Kind of data set: Radioligand binding assay, CHO cell membranes expressing recombinant human SSTR4. To be noted: [3-125I-Tyr]-Somatostatin-(1-14). The method, then:
Receptor binding assays refer to a technique in which labeled receptor ligands are used to detect binding to a receptor. In competition experiments test compounds, which are not labeled, compete with the binding side of a labeled ligand. The displacement of the labeled ligand by the test compound leads to a decreased signal.
For the binding experiments 200 μL of membrane homogenate from one of the following protein amounts is used: hSSTR1 (40 μg/well); hSSTR2 (25 μg/well); hSSTR3 (1.5 μg/well); hSSTR4 (0.5 μg/well); hSSTR5 (25 μg/well). […] The protein-bound radioactivity is measured in a suitable reader. The non-specific binding is defined as radioactivity bound in the presence of 1 μM Somatostatin-14 during the incubation period.
The analysis of the concentration-binding curves is performed by computer-assisted nonlinear least square curve fitting method using the model of one receptor binding site.

Sequence of human Somatostatin 4 receptor (SSTR4) (P31391 whole entry): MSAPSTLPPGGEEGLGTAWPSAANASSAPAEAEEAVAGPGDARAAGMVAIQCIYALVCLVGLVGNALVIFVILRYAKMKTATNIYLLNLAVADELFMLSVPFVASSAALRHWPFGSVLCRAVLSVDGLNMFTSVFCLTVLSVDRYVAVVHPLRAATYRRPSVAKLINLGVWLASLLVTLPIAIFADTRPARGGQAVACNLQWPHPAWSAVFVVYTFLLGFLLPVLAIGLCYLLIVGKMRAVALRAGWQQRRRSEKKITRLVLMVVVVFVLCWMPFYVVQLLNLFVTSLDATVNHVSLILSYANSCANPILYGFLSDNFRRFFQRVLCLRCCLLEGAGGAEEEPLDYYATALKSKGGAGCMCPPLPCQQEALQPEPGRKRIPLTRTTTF
Sequence of human SSTR4 (P31391 whole entry): as above

In the case of `CCc1ccccc1OCC(C)(C)NC(=O)[C@H]1[C@@H]2CNC[C@@H]21` [Example 39], the “Half-life t1/2” value in data set [1] was greater than 2.17 h.
On the same count and under the same terms, next, `Cc1cccn2c(C(C)(C)NC(=O)[C@H]3[C@@H]4CNC[C@@H]43)ncc12.Cl` [Example 126]: greater than 2.17 h; `CC(C)(NC(=O)[C@H]1[C@@H]2CNC[C@@H]21)c1cnc2ccccn12.Cl` [Example 20]: greater than 2.17 h.
For `Cc1ncccc1OCC(C)(C)NC(=O)[C@H]1[C@@H]2CNC[C@@H]21.Cl` [Example 44], in data set [1], the “Half-life t1/2” value is greater than 2.17 h.
On to `O=C(NC1CCCCC1c1ccccc1)[C@H]1[C@@H]2CNC[C@@H]21` (stereo partly drawn) [Example 9], for which the EC50 in data set [2] was determined as 536 nM.
As to `CC(C)(NC(=O)[C@H]1[C@@H]2CNC[C@@H]21)c1ncccc1C(F)(F)F.Cl` [Example 23], the “Half-life t1/2” value in data set [1] is greater than 2.17 h.
As to `Cc1cccn2c(C(C)(C)NC(=O)[C@H]3[C@@H]4CNC[C@@H]43)nc(C)c12.Cl` [Example 130], the EC50 in data set [2] was found to be 0.3 nM. In addition, the half-life at 1 μM in data set [1] is greater than 2.17 h.
As for `CC(C)(NC(=O)[C@H]1[C@@H]2CNC[C@@H]21)c1nccc2ccccc12.Cl` [Example 24], the “Half-life t1/2” value in data set [1] was greater than 2.17 h.
Consider `Cc1ccnnc1OCC(C)(C)NC(=O)[C@H]1[C@@H]2CNC[C@@H]21.Cl` [Example 67], for which the “Half-life t1/2” value in data set [1] was greater than 2.17 h.
As to `Cc1cc2ccccc2c(C(C)(C)NC(=O)[C@H]2[C@@H]3CNC[C@@H]32)n1.Cl` [Example 22], in data set [1], the “Half-life t1/2” value was greater than 2.17 h.
For the molecule `CC(C)(NC(=O)[C@H]1[C@@H]2CNC[C@@H]21)c1ccnc2ccccc12.Cl` [Example 21], the “Half-life t1/2” value in data set [1] is greater than 2.17 h.
In the case of `CC(C)(NC(=O)[C@H]1[C@@H]2CNC[C@@H]21)c1noc2c(F)cccc12` [Example 101], the “Half-life t1/2” value in data set [1] is greater than 2.17 h.
In the case of `Cc1cccc2c(C(C)(C)NC(=O)[C@H]3[C@@H]4CNC[C@@H]43)n[nH]c12` [Example 93], the EC50 in data set [2] worked out at 0.1 nM. Besides, on human SSTR4, the Ki was 3.6 nM. The half-life at 1 μM in data set [1] is greater than 2.17 h.
As for `CC(C)(COc1cccnc1C(F)(F)F)NC(=O)[C@H]1[C@@H]2CNC[C@@H]21.Cl` [Example 18], the “Half-life t1/2” value in data set [1] is greater than 2.17 h.
On the same count and under the same terms, next, `Cc1cccnc1C(C)(C)NC(=O)[C@H]1[C@@H]2CNC[C@@H]21.Cl.Cl` [Example 25]: greater than 2.17 h.
Turning to `CC(C)(NC(=O)[C@H]1[C@@H]2CNC[C@@H]21)c1n[nH]c2ccccc12` [Example 94], the EC50 in data set [2] amounted to 1.6 nM. Moreover, the half-life at 1 μM in data set [1] is greater than 2.17 h.
In the case of `CC(C)(NC(=O)[C@H]1[C@@H]2CNC[C@@H]21)c1n[nH]c2c(C(F)(F)F)cccc12` [Example 110], the EC50 in data set [2] was found to be 0.7 nM. Moreover, the half-life at 1 μM in data set [1] is greater than 2.17 h.
As to `CC(C)(NC(=O)[C@H]1[C@@H]2CNC[C@@H]21)c1nc(C2CC2)c2ccccn12.Cl` [Example 120], the “Half-life t1/2” value in data set [1] is greater than 2.17 h.
Regarding `Cc1cc(C2CC2)ccc1OCC(C)(C)NC(=O)[C@H]1[C@@H]2CNC[C@@H]21` [Example 65], the half-life at 1 μM in data set [1] was greater than 2.17 h.
In the case of `Cc1nc(C(C)(C)NC(=O)[C@H]2[C@@H]3CNC[C@@H]32)c2ccccc2n1` [Example 138], the “Half-life t1/2” value in data set [1] is greater than 2.17 h.
For the molecule `CC(C)(NC(=O)[C@H]1[C@@H]2CNC[C@@H]21)c1ncc2c(F)cccn12.Cl` [Example 133], the “Half-life t1/2” value in data set [1] is greater than 2.17 h.
Consider `CC(C)(NC(=O)[C@H]1[C@@H]2CNC[C@@H]21)c1ncc2ccccn12.Cl` [Example 68], for which the “Half-life t1/2” value in data set [1] is greater than 2.17 h.
